From patent US12514865B2, “Biomaterial-based antigen free vaccine and the use thereof” (President and Fellows of Harvard College, priority 2019, dated 2026)

How the values were obtained:
4T1 tumors = test: Tumor penetration study of Dox-iRGD; assay type: in vivo, Balb/c mice; conditions: released from peritumorally injected gels with GM-CSF, confocal imaging
Procedure: 4T1 cells (0.6 million) in HBSS buffer were subcutaneously injected into the right flank of Balb/c mice. After 5 days, pore-forming alginate gels loaded with GM-CSF (3 μg)+Dox-iRGD (50 μg in Dox-equivalent) or GM-CSF+Dox-iRDG or GM-CSF+Dox were injected next to the tumors. After 48 h, gels and tumors were harvested and frozen with O.C.T. compound, and sectioned with a thickness of 8 μm. To determine the tumor penetration of drugs, tissue sections were stained with DAPI for 10 min and imaged under a confocal microscope.

4T1 cells = test: In vitro immunogenic cell death assay; assay type: cell-based; conditions: 24 h
Procedure: 4T1 cells were incubated with different concentrations of Dox at 37° C. for 24 h. Cells without drug treatment were used as controls. Cells were washed with PBS for three times, collected, and stained with FITC-conjugated anti-CD47, Alex Fluor 647-conjugated anti-calreticulin, and fixable viability dye efluor780 for 20 min prior to FACS analyses.

[1] = Release of Dox-iRGD or Dox from pore-forming alginate gels; assay type: physicochemical; conditions: in vitro, DMEM 37 °C
[2] = In vitro encapsulation and release of biomolecules from the cryogel vaccine; assay type: physicochemical
Procedure: To determine the incorporation efficiency and release kinetics of Cpg-odn, GM-CSF and antigen from cryogel vaccines, gels were incubated in lml of sterile PBS at 37° C. with shaking. Media was replaced periodically. Micro-BCA (Pierce Biotechnology) was used to quantify total protein content. GM-CSF and Cpg-odn released in the supernatant were detected by ELISA (Invitrogen) and OliGreen assay (Invitrogen), respectively. The amount of antigen was determined by subtracting total protein content from the amount of GM-CSF quantified by ELISA.

Compound | tumor penetration / accumulation in tumor tissues (4T1 tumors) | expression of CD47 (4T1 cells) | cell-surface calreticulin (4T1 cells; 0-100 nM) | released from pore-forming alginate gel within 6 h [1] [%] | released from pore-forming alginate gel within 24 h [1] | released over the first 5 days in vitro ([2]; from cryogel) [%] | encapsulation efficiency ([2]; in MA-PEG/MA-alginate vaccine cryogel) [%] | burst release of the loaded amount ([2]; in vitro, from cryogel)
COc1cccc2c1C(=O)c1c(O)c3c(c(O)c1C2=O)C[C@@](O)(C(=O)CO)C[C@@H]3O[C@H]1C[C@H](N)[C@H](O)[C@H](C)O1 [Dox, doxorubicin] | negligible accumulation | increased expression of the anti-phagocytic marker CD47 | upregulated cell-surface calreticulin | ~30 | more than 60% | – | – | –
GM-CSF: cytokine granulocyte-macrophage colony-stimulating factor (PeproTech) | – | – | – | – | – | 85 | 87 | about 8%
